Patent US8178506B2, “Oligomeric compounds and compositions for use in modulation of small non-coding RNAs” (Regulus Therapeutics Inc., priority 2003, dated 2012)
In the oligonucleotide strings, read from the 5' end, every base follows the letter of its sugar. An asterisk marks phosphorothioate; unmarked linkages are phosphodiester. Other units and linkages are bracketed, terminal groups are in braces. A string of capitals states the bases alone. e = 2'-O-(2-methoxyethyl) (MOE); [5mC] = 5-methylcytosine

Experiments:
aP2 = aP2 mRNA expression in adipocytes (real-time PCR); format: cell-based, human; details: for AP2 (mRNA expression): adipocytes, 250 nM oligomeric compound, day nine post-transfection, relative to control (1.0), Table 16
PPARγ = PPARγ mRNA expression in adipocytes (real-time PCR); format: cell-based, human; details: for PPAR gamma (mRNA expression): adipocytes, 250 nM oligomeric compound, day nine post-transfection, relative to control (1.0), Table 16
HSL = HSL mRNA expression in adipocytes (real-time PCR); format: cell-based, human; details: for HSL (mRNA expression): adipocytes, 250 nM oligomeric compound, day nine post-transfection, relative to control (1.0), Table 16
preadipocytes = assay: Caspase assay in preadipocytes; format: cell-based, human; details: untreated control set equal to 1.0
Text: The effect of oligomeric compounds of the present invention targeting miRNAs was examined in preadipocytes (Zen-Bio, Inc., Research Triangle Park, N.C.) using the fluorometric caspase assay previously described in Example 11.

HuVECs = assay: Endothelial tube formation assay in HuVECs; details: 75 nM oligomeric compound
Description: In some embodiments, HUVECs are used to measure the effects of oligomeric compounds of the invention on endothelial tube formation activity. The tube formation assay is performed using an in vitro Angiogenesis Assay Kit (Chemicon International, Temecula, Calif.).
Untreated control cells receive LIPOFECTIN™ only.
Approximately fifty hours after transfection, cells are transferred to 96-well plates coated with ECMatrix™ (Chemicon International). Under these conditions, untreated HUVECs form tube-like structures. After an overnight incubation at 37° C., treated and untreated cells are inspected by light microscopy. Tube formation in cells treated with oligomeric compounds is compared to that in untreated control cells. Individual wells are assigned discrete scores from 1 to 5 depending on the extent of tube formation. A score of 1 refers to a well with no tube formation while a score of 5 is given to wells where all cells are forming an extensive tubular network.
In one embodiment, primary human umbilical vein endothelial cells (HuVECs) were used to measure the effects of oligomeric compounds targeted to miRNAs on tube formation activity. HuVECs were routinely cultured in EBM (Clonetics Corporation, Walkersville, Md.) supplemented with SingleQuots supplements (Clonetics Corporation, Walkersville, Md.). […] HuVECs are plated at 3000 cells/well in 96-well plates. One day later, cells are transfected with oligomeric compounds. The tube formation assay is performed using an in vitro Angiogenesis Assay Kit (Chemicon International, Temecula, Calif.).
ISIS 29248 and ISIS 196103 are chimeric 5-10-52′-MOE gapmer oligonucleotides. […] All cytidine residues are 5-methylcytidines. ISIS 342672 (SEQ ID NO: 789) contains 13 mismatches with respect to the mature mir-143 miRNA, and was also used as a negative control. ISIS 342672 is a uniform 2′-MOE phosphorothioate oligomeric compound 22 nucleotides in length. All cytidine residues are 5-methylcytidines.
Oligomeric compound was mixed with LIPOFECTIN™ (Invitrogen Life Technologies, Carlsbad, Calif.) in OPTI-MEM™ (Invitrogen Life Technologies, Carlsbad, Calif.) to achieve a final concentration of 75 nM of oligomeric compound and 2.25 μg/mL LIPOFECTIN™. Before adding to cells, the oligomeric compound, LIPOFECTIN™ and OPTI-MEM™ were mixed thoroughly and incubated for 0.5 hrs. Untreated control cells received LIPOFECTIN™ only. […] Compounds targeted to miRNAs were tested in triplicate, and ISIS 29848 was tested in up to six replicates. […] 100 μL of full growth medium was added to each well. Fifty hours after transfection, cells are transferred to 96-well plates coated with ECMa-trix™ (Chemicon Inter-national). Under these conditions, untreated HuVECs form tube-like structures.

Glut4 = Glut4 mRNA expression in adipocytes (real-time PCR); format: cell-based, human; details: for Glut4 (mRNA expression): adipocytes, 250 nM oligomeric compound, day nine post-transfection, relative to control (1.0), Table 16
leptin = assay: Leptin secretion by adipocytes (ELISA); format: cell-based, human; details: adipocytes, 250 nM oligomeric compound, day nine post-transfection, relative to control (1.0); Table 16
Description: Leptin secretion into the medium in which adipocytes are cultured is measured by protein ELISA. On day nine post-transfection, 96-well plates are coated with a monoclonal antibody to human leptin (R&D Systems, Minneapolis, Minn.) and left at 4° C. overnight. The plates are blocked with bovine serum albumin (BSA), and a dilution of the treated adipoctye medium is incubated in the plate at room temperature for approximately 2 hours. After washing to remove unbound components, a second monoclonal antibody to human leptin (conjugated with biotin) is added. The plate is then incubated with strepavidin-conjugated horse radish peroxidase (HRP) and enzyme levels are determined by incubation with 3, 3′,5,5′-tetramethlybenzidine, which turns blue when cleaved by HRP. The OD450 is read for each well, where the dye absorbance is proportional to the leptin concentration in the cell lysate.
Leptin is also a marker for differentiated adipocytes. In the adipocyte assay, leptin secretion into the media above the differentiated adipocytes was measured by protein ELISA. Cell growth, transfection and differentiation procedures were carried out as described for the Triglyceride accumulation assay (see below). On day nine post-transfection, 96-well plates were coated with a monoclonal antibody to human leptin (R&D Systems, Minneapolis, Minn.) and left at 4° C. overnight. The plates were blocked with bovine serum albumin (BSA), and a dilution of the media was incubated in the plate at RT for 2 hours. After washing to remove unbound components, a second monoclonal antibody to human leptin (conjugated with biotin) was added. The plate was then incubated with strepavidin-conjugated horseradish peroxidase (HRP) and enzyme levels are determined by incubation with 3, 3′, 5,5′-Tetramethlybenzidine, which turns blue when cleaved by HRP. The OD450 was read for each well, where the dye absorbance is proportional to the leptin concentration in the cell lysate. Results are expressed as a percent±standard deviation relative to transfectant-only controls.

adipocytes = assay: Triglyceride accumulation assay in adipocytes; format: cell-based, human
[1] = system: BJ, B16-F10, T47D, T47Dp53 and HeLa cells; assay: Cell cycle assay (propidium iodide flow cytometry), cell line panel; format: cell-based; details: 150 nM oligomeric compound, 4.5 μg/ml LIPOFECTIN, after 72 hours, propidium iodide flow cytometry
T47D cells = assay: Caspase-3 activity assay (apoptosis) in T47D cells; details: T47D cells, 48 hours; for Fold Increase over UTC (caspase-3 activity, apoptosis): 200 nM oligomeric compound
[2] = adipocytes, 250 nM oligomeric compound, relative to control (1.0), Table 16
[3] = differentiating adipocytes transfected with oligomeric compound

Row | Substance | AP2 (mRNA expression) (aP2) | PPAR gamma (mRNA expression) (PPARγ) | HSL (mRNA expression) (HSL) | Fold Increase over UTC (caspase activity) (preadipocytes) [fold over UTC] | % Activity Relative to UTC (tube formation) (HuVECs; Table 58) [%] | Glut4 (mRNA expression) (Glut4) | Leptin (secretion) (leptin) | TG (triglyceride accumulation) (adipocytes; [2]) | also measured
1 | 327926 (antisense eA*e[5mC]*eT*eA*eT*eG*e[5mC]*eA*eA*e[5mC]*e[5mC]*eT*eA*e[5mC]*eT*eA*e[5mC]*e[5mC]*eT*e[5mC]*eT) [compound 327926] | 0.85 | 0.93 | 0.82 | 1.8 | 96.3 | 1.10 | 1.47 | 1.06 | 
2 | 327930 (antisense eA*e[5mC]*eT*eA*eT*eA*e[5mC]*eA*eA*e[5mC]*e[5mC]*eT*e[5mC]*e[5mC]*eT*eA*e[5mC]*e[5mC]*eT*e[5mC]*eA) [compound 327930] | 0.86 | 0.98 | 0.89 | 1.4 | 88.9 | 1.01 | 0.95 | 0.97 | 
3 | 327955 (antisense eG*e[5mC]*e[5mC]*e[5mC]*eT*eT*eT*e[5mC]*eA*eT*e[5mC]*eA*eT*eT*eG*e[5mC]*eA*e[5mC]*eT*eG) [compound 327955] | 0.74 | 0.92 | 0.82 | 4.3 |  | 0.45 | 1.22 | 0.81 | % Activity Relative to UTC (tube formation) (HuVECs; Table 59): 46.7%
4 | 327942 (antisense e[5mC]*e[5mC]*eA*eT*e[5mC]*eT*eT*eT*eA*e[5mC]*e[5mC]*eA*eG*eA*e[5mC]*eA*eG*eT*eG*eT*eT) [compound 327942] | 0.82 | 0.87 | 0.79 | 1.0 | 74.1 | 0.66 | 2.03 | 0.85 | 
5 | NNNNNNNNNNNNNNNNNNNN [ISIS 29848, reference compound] |  |  |  | 1.2 |  |  |  |  | G1 (percentage of cells in phase of the cell cycle) [1]: 57.8%; G2/M (percentage of cells in phase of the cell cycle) [1]: 15.6%; S (percentage of cells in phase of the cell cycle) [1]: 26.5%; SubG1 (percentage of cells in phase of the cell cycle) [1]: 9.6%; aneuploid (percentage of cells) [1]: 12%; AP2 mRNA (aP2; [3]): 89 percentage of untreated control (UTC); Fold Increase over UTC (caspase-3 activity, apoptosis) (T47D cells; experiment of Table 10): 3.0 fold; Fold Increase over UTC (caspase-3 activity, apoptosis) (T47D cells; experiment of Table 11): 3.2 fold; Fold Increase over UTC (caspase-3 activity, apoptosis) (T47D cells; experiment of Table 12): 3.5 fold; Fold Increase over UTC (caspase activity) (T47D cells; 200 nM, relative to untreated control): 3.5; PPAR gamma mRNA (PPARγ; [3]): 100 percentage of untreated control (UTC); HSL mRNA (HSL; [3]): 84 percentage of untreated control (UTC); GLUT4 mRNA (Glut4; [3]): 96 percentage of untreated control (UTC); TG (triglyceride accumulation) (adipocytes; [3]): 89 percentage of untreated control (UTC)
6 | 327938 (antisense eA*eA*e[5mC]*eA*eA*eT*eA*e[5mC]*eA*eA*e[5mC]*eT*eT*eA*e[5mC]*eT*eA*e[5mC]*e[5mC]*eT*e[5mC]*eA) [compound 327938] | 0.86 | 0.90 | 0.85 | 1.0 | 96.3 | 0.80 | 1.35 | 1.05 | 
